Patent US9724351B2, “Compounds for the treatment of paramoxyvirus viral infections” (priority 2012, dated 2017)

How the values were obtained:
[1] = Cytotoxicity Determination; format: cell-based; details: human, HEp-2 cells, without addition of virus, CCK-8 readout, bins (Table 4: greater than 100 μM; Table 5: equal to or less than 100 μM and greater than 10 μM), read-out: 50% cytotoxicity concentration (CC50)
Method in brief: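 CC50 was derived from CCK-8 optical density after a 3-4 h reagent incubation. Before that, cells without virus had been treated for 5 days at 37 °C, 5% CO2 with compound at seven ½-step final concentrations from 100 μM, in duplicate wells.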

[2] = test system: Respiratory Syncytial Virus (RSV) long strain (ATCC#VR-26); assay: RSV Antiviral Assay (CPE reduction assay); format: cell-based; details: human respiratory syncytial virus, 120 h; HEp-2 cells infected with RSV long strain, 5 days, CCK-8 readout; bins (Table 2: less than 1 μM; Table 3: equal to or higher than 1 μM and less than 50 μM); read-out: 50% effective concentration (EC50)
Method in brief: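 Cytopathic-effect protection measured after 5 days at 37 °C, 5% CO2 via CCK-8 dehydrogenase readout at 450 nm (630 nm reference), EC50 regressed from mean O.D. Host HEp-2 cells received RSV long strain at 100 TCID50/well; compound 9-point ⅓ series starting 100 μM or 1 μM, 1% DMSO, duplicate wells.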

SMILES | CC50 at 5 days [1] [µM] | EC50 [2] [nM]
COc1ccc(C(=O)NCC(=O)c2cc(C(C)C)cc(-c3csc4c(F)cccc34)n2)cc1OC [Compound 1200] | > 100 | < 1000
C/C(=N\NC(=O)CNC(=O)c1ccc(N2CCCC2)cc1)c1csc2ccccc12 [Compound 468] | > 100 | 1000 to 50000
COc1cc(C(=O)NCC(=O)c2ccc(OC)c(-c3ccc(Cl)nc3)n2)ccc1OCCO [Compound 1330] | > 100 | 1000 to 50000
COc1ccc(C(=O)NCC(=O)c2ccc(OC)c(-c3ccccc3F)n2)cc1OC [Compound 1528] | > 100 | 1000 to 50000
C/C(=N\NC(=O)CNC(=O)c1ccc(N2CCCCC2)cc1)c1csc2ccccc12 [Compound 467] | > 100 | 1000 to 50000
COc1ccc(C(=O)NCC(=O)N/N=C(\C)c2csc3ccccc23)c(OC)c1OC [Compound 481] | > 100 | 1000 to 50000
COc1cc(C(=O)CNC(=O)c2ccc(OC)c(OC)c2)nc(-c2ccc(O)cc2)c1 [Compound 1401] | 10 to 100 | 1000 to 50000
C/C(=N\NC(=O)CNC(=O)c1ccc2c(c1)OC(F)(F)O2)c1csc2ccccc12 [Compound 474] | 10 to 100 | 1000 to 50000
COc1ccc(C(=O)NCC(=O)c2ccnc(-c3csc4c(F)cccc34)n2)cc1OC [Compound 840] | > 100 | 1000 to 50000
CCOc1ccc(C(=O)NCC(=O)c2ccc(OC)c(-c3ccc(F)c(Cl)c3)n2)cc1OC [Compound 2641] | > 100 | < 1000
CCCn1nc(C(=O)CNC(=O)c2ccc(OC)c(OC)c2)nc1-c1csc2c(F)cccc12 [Compound 1205] | 10 to 100 | 1000 to 50000
COc1ccc(C(=O)NCC(=O)c2cc(C(C)(C)C)cc(-c3csc4c(F)cccc34)n2)cc1OC [Compound 1252] | > 100 | < 1000
COc1ccc(C(=O)NC(CO)C(=O)c2ccc(OC)c(-c3csc4c(F)cccc34)n2)cc1OC (stereo not shown) [Compound 1816] | > 100 | < 1000
COCC/C(=N/NC(=O)CNC(=O)c1ccc(OC)c(OC)c1O)c1csc2c(F)cccc12 [Compound 400-21] | > 100 | 1000 to 50000
COc1cc(C(=O)NCC(=O)c2ccc(OC)c(-c3ccc(F)cc3F)n2)ccc1OCCO [Compound 1601] | > 100 | < 1000
CCOc1ccc(C(=O)NCC(=O)N/N=C(\C)c2csc3c(F)cccc23)cc1OC [Compound 461] | 10 to 100 | < 1000
COc1ccc(C(=O)N(C)NC(=O)c2cccc(-c3csc4c(F)cccc34)n2)cc1OC [Compound 3101] | 10 to 100 | 1000 to 50000
COc1cc(C(=O)NCC(=O)N(C)/N=C(\C)c2csc3c(F)cccc23)ccc1OCCO [Compound 651] | > 100 | < 1000
COc1cc(C(=O)NCC(=O)c2ccc(OC)c(-c3c[nH]c4c(F)cccc34)n2)ccc1OCCO [Compound 1342] | > 100 | < 1000
COc1cc(C(=O)NCC(=O)c2ccc(OC)c(-c3ccnc(F)c3)n2)ccc1OCCO [Compound 1610] | > 100 | 1000 to 50000

SMILES | CC50 at 5 days [1] [µM] | EC50 [2] [nM]
COc1ccc(C(=O)NCC(=O)c2cc(C)cc(-c3csc4c(F)cccc34)n2)cc1OC [Compound 1211] | > 100 | < 1000
COc1cc(C(=O)N[C@@H](CCO)C(=O)c2ccc(OC)c(-c3csc4c(F)cccc34)n2)ccc1OCCO [Compound 1803] | 10 to 100 | < 1000
COc1ccc(C(=O)NCC(=O)N/N=C(\C)c2csc3cc(F)ccc23)cc1OC [Compound 400-22] | 10 to 100 | 1000 to 50000
COc1ccc(C(=O)NCC(=O)c2nc(-c3csc4c(F)cccc34)c(C)n2C)cc1OC [Compound 1358] | 10 to 100 | < 1000
COc1ccc(C(=O)NCC(=O)N2CCCC(c3ccc(F)c4sccc34)=N2)cc1OC [Compound 3500] | > 100 | < 1000
COc1ccc(C(=O)NCC(=O)c2nc(-c3csc4c(F)cccc34)cn2C)cc1OC [Compound 1353] | > 100 | 1000 to 50000
COc1ccc(C(=O)NCC(=O)c2cccc(-c3csc4c(F)cccc34)n2)cc1OC [Compound 1202] | > 100 | 1000 to 50000
COc1ccc(C(=O)NCC(=O)N/N=C2\CCSc3ccccc32)cc1OC [Compound 451] | > 100 | 1000 to 50000
COc1ccc(C(=O)NCC(=O)c2nc(-c3csc4c(F)cccc34)cs2)cc1OC [Compound 1206] | 10 to 100 | 1000 to 50000
COc1cc(C(=O)NCC(=O)c2ccc(OC)c(-c3ccc(F)c(Br)c3)n2)ccc1OCCO [Compound 1622] | > 100 | < 1000
COc1ccc(C(=O)NCC(=O)N/N=C(\C)c2ccnc3ccccc23)cc1OC [Compound 449] | > 100 | 1000 to 50000
COCCOc1ccc(C(=O)NCC(=O)N/N=C(\CCOC)c2csc3c(F)cccc23)cc1OC [Compound 513] | > 100 | < 1000
CCN(CC)c1ccc(C(=O)NCC(=O)N/N=C/c2csc3ccccc23)cc1 [Compound 235] | > 100 | 1000 to 50000
CCC/C(=N\NC(=O)CNC(=O)c1ccc(OC)c(OC)c1)c1csc2ccccc12 [Compound 427] | > 100 | < 1000
COc1ccc(C(=O)NCC(=O)N/N=C(/C)c2c(OC)sc3ccccc23)cc1OC [Compound 400-14] | > 100 | 1000 to 50000
COc1cc(C(=O)NCC(=O)c2ccc(OC)c(-c3ccc(Cl)c(Cl)c3)n2)ccc1OCCO [Compound 1616] | > 100 | < 1000
COc1ccc(C(=O)NCC(=O)c2ccc(OC)c(-c3cccc(F)c3)n2)cc1OC [Compound 1527] | > 100 | 1000 to 50000
COc1ccc(C(=O)NCC(=O)N/N=C2\CCOc3ccccc32)cc1OC [Compound 452] | > 100 | 1000 to 50000
COc1ccc(C(=O)NCC(=O)N/N=C(\C#N)c2ccccc2)cc1OC [Compound 454] | > 100 | 1000 to 50000
CCc1cc(C(=O)CNC(=O)c2ccc(OCCO)c(OC)c2)nc(-c2csc3c(F)cccc23)c1OC [Compound 2104] | 10 to 100 | < 1000

SMILES | CC50 at 5 days [1] [µM] | EC50 [2] [nM]
COc1cc(C(=O)N[C@@H](COC(C)(C)C)C(=O)c2ccc(OC)c(-c3csc4c(F)cccc34)n2)ccc1OCCO [Compound 1819] | 10 to 100 | < 1000
COc1ccc(C(=O)NCC(=O)c2ccc(OC)c(-c3cccnc3C)n2)cc1OC [Compound 1540] | > 100 | 1000 to 50000
COc1ccc(C(=O)NCC(=O)N/N=C/c2cccc3ccccc23)cc1OC [Compound 402] | 10 to 100 | 1000 to 50000
COc1cc(C(=O)NCC(=O)c2ccc(OC)c(-c3ccc(F)c(C)c3)n2)ccc1OCCO [Compound 1325] | > 100 | < 1000
COc1ccc(C(=O)NCC(=O)c2cc(N(C)C)cc(-c3csc4c(F)cccc34)n2)cc1OC [Compound 1221] | > 100 | < 1000
COc1ccc(C(=O)NCC(=O)c2ccc(OC)c(-c3ccc(N4CCOCC4)cc3)n2)cc1OC [Compound 1506] | 10 to 100 | 1000 to 50000
COc1cc(C(=O)CNC(=O)c2ccc(OCCO)c(OC)c2)nc(-c2csc3c(F)cccc23)c1 [Compound 1213] | > 100 | < 1000
COc1ccc(C(=O)NC(C)C(=O)c2ccc(OC)c(-c3csc4c(F)cccc34)n2)cc1OC (stereo not shown) [Compound 1824] | > 100 | < 1000
COc1ccc(C(=O)NCC(=O)NN=C(c2ccccn2)c2ccccn2)cc1OC [Compound 441] | > 100 | 1000 to 50000
COc1ccc(C(=O)NCC(=O)c2ccc(N(C)C)c(-c3csc4c(F)cccc34)n2)cc1OC [Compound 2101] | > 100 | 1000 to 50000
C=C(C)/C(=N\NC(=O)CNC(=O)c1ccc(OC)c(OC)c1)c1csc2ccccc12 [Compound 434] | > 100 | 1000 to 50000
CCOc1ccc(C(=O)NCC(=O)N/N=C(\CCc2ccccc2)c2csc3ccccc23)cc1OC [Compound 459] | > 100 | < 1000
COc1cc(C(=O)NCC(=O)N/N=C(\CC2CCCCC2)c2csc3c(F)cccc23)ccc1OCCO [Compound 605] | 10 to 100 | < 1000
COc1ccc(C(=O)NCC(=O)c2ccc(OC)c(-c3ccc(OC(F)(F)F)cc3)n2)cc1OC [Compound 1532] | 10 to 100 | 1000 to 50000
COc1cc(C(=O)NCC(=O)c2ccc(OC)c(-c3csc4ccc(C#N)cc34)n2)ccc1OCCO [Compound 1620] | 10 to 100 | 1000 to 50000
COc1ccc(C(=O)NCC(=O)c2ccc3c(n2)-c2c(sc4c(F)cccc24)CO3)cc1OC [Compound 2701] | 10 to 100 | 1000 to 50000
COc1ccc(C(=O)NCC(=O)c2ccc(O)c(-c3csc4c(F)cccc34)n2)cc1OC [Compound 1335] | 10 to 100 | < 1000
COc1ccc(C(=O)NCC(=O)c2ccc(OC)c(-c3csc(C(=O)O)c3)n2)cc1OC [Compound 1537] | > 100 | 1000 to 50000
COc1ccc(C(=O)NCC(=O)c2ccc(OC)c(-c3ccc4ncccc4c3)n2)cc1OC [Compound 1507] | 10 to 100 | 1000 to 50000
